Reference: ChEMBL document CHEMBL4819049, “Estrogenic activity of ethyl gallate and its potential use in hormone replacement therapy” (Bioorg Med Chem Lett, 2021)
Activity calls are given as the source filed them. The calls are words filed in the database; no cut-off is given here.

Key:
MCF7 [1] = experiment: Cytotoxicity against human ER-positive MCF7 cells assessed as increase in cell proliferation at 12.5 to 100 uM incubated for 24 hrs; format: cell-based; details: mcf7, 24 h, dose 12.5-100 µM
MCF7 [2] = experiment: Cytotoxicity against human ER-positive MCF7 cells assessed as reduction in cell proliferation at 50 uM incubated for 144 hrs by Soto's E-screen assay; format: cell-based; details: mcf7, 144 h
MCF7 [3] = experiment: Estrogenic activity at human ER-positive MCF7 cells assessed as increase in cell proliferation at 50 uM incubated for 144 hrs by Soto's E-screen assay; format: functional, cell-based
Rattus norvegicus [4] = experiment: Estrogenic activity in immature rat model assessed as uterine weight at 10 ug/kg, sc (reference value: 37.67 mg); format: functional; details: dose 10 µg/kg
MCF7 [5] = experiment: Estrogenic activity at human ER-positive MCF7 cells assessed as increase in cell proliferation incubated for 144 hrs by Soto's E-screen assay; format: functional, cell-based; details: dose 25-100 µM
MCF7 [6] = experiment: Estrogenic activity at human ER-positive MCF7 cells assessed as increase in cell proliferation at 50 uM incubated for 144 hrs in presence of ER antagonist, ICI182780 by Soto's E-screen assay; format: functional, cell-based
Rattus norvegicus [7] = experiment: Estrogenic activity in immature rat model assessed as uterine weight at 100 mg/kg, sc administered once daily for 3 days (reference value: 37.67 mg); format: functional; details: dose 100 mg/kg/day; time 3 day
[8] = target: T1, Estrogen receptor (Homo sapiens) (UniProt P03372); experiment: Agonist activity at ER in human MCF7 cells assessed as increase in receptor gene activity at 12.5 to 100 uM in presence of ER antagonist, ICI182780 by luciferase reporter gene assay; format: cell-based; details: dose 12.5-100 µM
T1 sequence (whole entry): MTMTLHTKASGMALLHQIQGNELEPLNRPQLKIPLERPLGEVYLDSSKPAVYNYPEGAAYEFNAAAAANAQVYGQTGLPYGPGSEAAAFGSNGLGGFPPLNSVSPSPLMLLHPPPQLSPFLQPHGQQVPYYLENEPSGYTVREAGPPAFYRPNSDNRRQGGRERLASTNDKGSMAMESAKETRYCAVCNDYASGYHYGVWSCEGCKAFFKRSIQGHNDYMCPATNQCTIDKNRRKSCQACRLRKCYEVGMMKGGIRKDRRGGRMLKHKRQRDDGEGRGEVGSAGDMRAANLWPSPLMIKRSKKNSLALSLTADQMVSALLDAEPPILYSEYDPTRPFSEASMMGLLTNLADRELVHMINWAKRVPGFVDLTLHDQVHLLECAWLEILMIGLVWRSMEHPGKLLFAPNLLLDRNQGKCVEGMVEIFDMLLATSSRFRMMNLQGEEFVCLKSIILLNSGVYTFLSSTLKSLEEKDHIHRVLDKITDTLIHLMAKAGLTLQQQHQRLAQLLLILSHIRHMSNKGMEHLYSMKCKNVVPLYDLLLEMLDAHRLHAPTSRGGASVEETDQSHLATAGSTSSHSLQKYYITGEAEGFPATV

MCF7 [9] = experiment: Estrogenic activity at human ER-positive MCF7 cells assessed as increase in cell proliferation at 12.5 to 100 uM incubated for 144 hrs in presence of ER antagonist, ICI182780 by Soto's E-screen assay; format: functional, cell-based; details: dose 12.5-100 µM
[10] = target: T1, Estrogen receptor (Homo sapiens); experiment: Agonist activity at ER in human MCF7 cells assessed as increase in receptor gene activity at 12.5 to 100 uM in presence of ER agonist, 17-beta-estradiol by luciferase reporter gene assay relative to control; format: cell-based; details: dose 12.5-100 µM
MCF7 [11] = experiment: Estrogenic activity at human ER-positive MCF7 cells assessed as cell proliferation at 50 uM incubated for 144 hrs by Soto's E-screen assay relative to control; format: functional; details: read-out: Activity
[12] = target: T1, Estrogen receptor (Homo sapiens); experiment: Agonist activity at ER in human MCF7 cells assessed as increase in receptor gene activity by luciferase reporter gene assay; format: cell-based; details: filed as agonist, dose 12.5-100 µM
MCF7 [13] = experiment: Cytotoxicity against human ER-positive MCF7 cells assessed as decrease in cell proliferation at 12.5 to 100 uM incubated for 24 hrs; format: functional, cell-based; details: for IC50: MCF7, 24 h; for inhibition: dose 12.5-100 µM
MCF7 [14] = experiment: Cytotoxicity against human ER-positive MCF7 cells assessed as cell proliferation at 50 uM incubated for 144 hrs by Soto's E-screen assay relative to control; format: cell-based; details: mcf7, 144 h

Row | Compound | Activity (MCF7 [1]) | Activity (MCF7 [2]) | Activity (MCF7 [3]) | further results
1 | C[C@@]12C[C@@]3(O)O[C@@H](O1)[C@]1(COC(=O)c4ccccc4)[C@H]3C[C@@]12O[C@@H]1O[C@H](COC(=O)c2ccccc2)[C@@H](O)[C@H](O)[C@H]1O | Non-Toxic | Non-Toxic | inactive | –
2 | C[C@@]12C[C@@]3(O)O[C@@H](O1)[C@]1(COC(=O)c4ccc(O)cc4)[C@H]3C[C@@]12O[C@@H]1O[C@H](CO)[C@@H](O)[C@H](O)[C@H]1O | Non-Toxic | Non-Toxic | inactive | –
3 | O=C(O)c1ccccc1 [BENZOIC ACID] | Non-Toxic | Non-Toxic | inactive | –
4 | C[C@]12CC[C@@H]3c4ccc(O)cc4CC[C@H]3[C@@H]1CC[C@@H]2O [ESTRADIOL] | – | – | – | Activity (Rattus norvegicus [4]): 51 mg
5 | CCOC(=O)c1cc(O)c(O)c(O)c1 [ETHYLGALLATE] | Non-Toxic | – | – | Activity (MCF7 [5]): Dose-Dependent Effect; Activity (MCF7 [6]): inactive; Activity (Rattus norvegicus [7]): 43.67 mg; Activity [8]: inactive; Activity (MCF7 [9]): inactive; fold change (FC) [10]: > 2; growth at 50 µM (MCF7 [11]): 131%; Activity [12]: Dose-Dependent Effect; IC50 (MCF7 [13]): 62.5 µM; inhibition (MCF7 [13]): Dose-Dependent Effect
6 | O=C(O)c1cc(O)c(O)c(O)c1 [GALLIC ACID] | Non-Toxic | – | – | Activity (MCF7 [14]): 15.8%; IC50 (MCF7 [13]): 17.4 µM; inhibition (MCF7 [13]): Dose-Dependent Effect
7 | C[C@@]12C[C@@]3(O)O[C@@H](O1)[C@]1(COC(=O)c4ccccc4)[C@H]3C[C@@]12O[C@@H]1O[C@H](CO)[C@@H](O)[C@H](O)[C@H]1O [PAEONIFLORIN] | Non-Toxic | Non-Toxic | inactive | –
8 | COc1ccc(C(C)=O)c(O)c1 [PAEONOL] | Non-Toxic | Non-Toxic | inactive | –
